Laboratory results taken from patent publication US11000033B2, “Ketone or oxime compound, and herbicide” (NISSAN CHEMICAL CORPORATION, priority 2014, dated 2021).

Legend:
Type in all cases: in vivo
Lolium multiflorum Lam. = assay: Test Example 4: herbicidal effect by soil treatment (symbol K); details: for K (Lolium multiflorum Lam.) herbicidal effect grade: application herbicide amount 320 g/ha; for K: Lolium multiflorum Lam., herbicidal effect grade: 320 g/ha
Outline: (§1)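 Seeds were sown in sterilized diluvial soil, covered with about 1.5 cm of soil, and the soil surface was sprayed with a water-diluted emulsion of the compound at a predetermined rate. Plants grew in a greenhouse at 25° C. to 30° C.; effects were scored visually 3 weeks after application.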

Galium spurium = assay: Test Example 5: herbicidal effect by foliage application, plastic box (symbol Q); details: 320 g/ha, 3 weeks after application
Outline: (§2)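 Emulsion formulation, diluted with water to the intended rate, was applied uniformly to leaves by small sprayer. Recipients were 14-day greenhouse-grown seedlings (25° C. to 30° C.). Assessment followed at 3 weeks.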

rapeseed = assay: Test Example 5: effect on crop by foliage application, plastic box (symbol g); details: 320 g/ha, 3 weeks after application
Outline: (§3)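 Foliage-application test plants come from spot sowing in sterilized diluvial soil under a soil layer of about 1.5 cm, grown at 25° C. to 30° C. in a greenhouse.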

Scirpus juncoides = assay: Test Example 1: herbicidal activity, application before weed generation in submerged conditions (symbol B); details: application herbicide amount 320 g/ha
Outline: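 Application before weed emergence: an aqueous dilution of the emulsion formulation was poured onto the surface of 4 cm-deep floodwater on the day of sowing. Effect was judged after 3 weeks (greenhouse, 25–30 °C).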

transplanted rice plant = assay: Test Example 1: effect on crop, application before weed generation in submerged conditions (symbol a); details: application herbicide amount 320 g/ha
Outline: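 Rice at 2.5 leaf stage transplanted into submerged soil (4 cm depth) sown with three weed species; herbicide applied before weed emergence.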

Alopecurus myosuroides [1] = assay: Test Example 4: herbicidal effect by soil treatment (symbol J); details: for J (Alopecurus myosuroides) herbicidal effect grade: application herbicide amount 320 g/ha; for J: Alopecurus myosuroides, herbicidal effect grade: 320 g/ha
Outline: as §1

rice = assay: Test Example 4: effect on crop by soil treatment (symbol b); details: for b (directly sowed rice plant) effect on crop grade: application herbicide amount 320 g/ha; for b: directly sowed rice plant, effect grade on crop: 320 g/ha
Outline: (§4)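 Sterilized diluvial soil, spot sowing, ~1.5 cm soil cover; greenhouse 25–30° C.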

Monochoria vaginalis = assay: Test Example 2: herbicidal activity, application during weed generation in submerged conditions (symbol C); details: Table 23; application herbicide amount 320 g/ha; grade 0-5 by criteria of Test Example 1
Outline: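 Compound was applied as a water-diluted emulsion into the standing water of flooded pots (4 cm) once co-sown weeds reached one to two leaves. Greenhouse temperature was 25° C. to 30° C., soil was alluvial, and each species was rated visually after 3 weeks.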

soybean = assay: Test Example 4: effect on crop by soil treatment (symbol d); details: for d (soybean) effect on crop grade: application herbicide amount 320 g/ha; for d: soybean, effect grade on crop: 320 g/ha
Outline: as §4

Alopecurus myosuroides [2] = assay: Test Example 5: herbicidal effect by foliage application, plastic box (symbol J); details: 320 g/ha, 3 weeks after application
Outline: as §2

wheat = assay: Test Example 4: effect on crop by soil treatment (symbol e); details: for e (wheat) effect on crop grade: application herbicide amount 320 g/ha; for e: wheat, effect grade on crop: 320 g/ha
Outline: as §4

corn = assay: Test Example 5: effect on crop by foliage application, plastic box (symbol c); details: 320 g/ha, 3 weeks after application
Outline: as §3

Digitaria ciliaris = assay: Test Example 5: herbicidal effect by foliage application, plastic box (symbol F); details: 320 g/ha, 3 weeks after application
Outline: as §2

[3] = system: Echinochloa crus-galli var. crus-galli; assay: Test Example 5: herbicidal effect by foliage application, plastic box (symbol H); details: 320 g/ha, 3 weeks after application
Outline: as §2

| Compound | K (Lolium multiflorum Lam.) herbicidal effect grade (Lolium multiflorum Lam.) | Q: Galium spurium, herbicidal effect grade (Galium spurium) | g: rapeseed, effect on crop grade (rapeseed) | Herbicidal effect grade, B: Scirpus juncoides (Scirpus juncoides) | Effect grade on crop, a: transplanted rice plant (transplanted rice plant) | J (Alopecurus myosuroides) herbicidal effect grade (Alopecurus myosuroides [1]) | b (directly sowed rice plant) effect on crop grade (rice) | Herbicidal effect grade, C: Monochoria vaginalis (Monochoria vaginalis) | d (soybean) effect on crop grade (soybean) | J: Alopecurus myosuroides, herbicidal effect grade (Alopecurus myosuroides [2]) | e (wheat) effect on crop grade (wheat) | c: corn, effect on crop grade (corn) | F: Digitaria ciliaris, herbicidal effect grade (Digitaria ciliaris) | H: Echinochloa crus-galli var. crus-galli, herbicidal effect grade [3] | K: Lolium multiflorum Lam., herbicidal effect grade (Lolium multiflorum Lam.) | Q: Galium spurium, herbicidal effect (criteria 0-5) (Galium spurium) | g: rapeseed, effect on crop (criteria 0-5) (rapeseed) | J: Alopecurus myosuroides, herbicidal effect grade (Alopecurus myosuroides [1]) | b: directly sowed rice plant, effect grade on crop (rice) | d: soybean, effect grade on crop (soybean) | also measured |
| --- | --- | --- | --- | --- | --- | --- | --- | --- | --- | --- | --- | --- | --- | --- | --- | --- | --- | --- | --- | --- | --- |
| CON=C(C)C(c1ccc(F)cc1)C1CC(O)=C(c2c(C)cc(C)cc2C)C1=O (stereo not shown) [1-049] | 0 (Herbicidal ratio of 5% or lower (almost no effect)) | 0 (Herbicidal ratio of 5% or lower (almost no effect)) | 0 (Herbicidal ratio of 5% or lower (almost no effect)) | 0 (Herbicidal ratio of 5% or lower (almost no effect)) | 0 (Herbicidal ratio of 5% or lower (almost no effect)) | 0 (Herbicidal ratio of 5% or lower (almost no effect)) | 0 (Herbicidal ratio of 5% or lower (almost no effect)) | 0 (Herbicidal ratio of 5% or lower (almost no effect)) | 0 (Herbicidal ratio of 5% or lower (almost no effect)) | 0 (Herbicidal ratio of 5% or lower (almost no effect)) | 0 (Herbicidal ratio of 5% or lower (almost no effect)) | 0 (Herbicidal ratio of 5% or lower (almost no effect)) | 0 (Herbicidal ratio of 5% or lower (almost no effect)) | 0 (Herbicidal ratio of 5% or lower (almost no effect)) | – | – | – | – | – | – | – |
| CC(CC1CC(O)=C(c2c(C)cc(C)cc2C)C1=O)=NOCC(C)O (stereo not shown) [1-027] | 5 (Herbicidal ratio of 90% or more (almost completely withered)) | 3 (Herbicidal ratio of 40% or higher and lower than 70%) | 4 (Herbicidal ratio of 70% or higher and lower than 90%) | 3 (Herbicidal ratio of 40% or higher and lower than 70%) | 4 (Herbicidal ratio of 70% or higher and lower than 90%) | 5 (Herbicidal ratio of 90% or more (almost completely withered)) | 5 (Herbicidal ratio of 90% or more (almost completely withered)) | 0 (Herbicidal ratio of 5% or lower (almost no effect)) | 0 (Herbicidal ratio of 5% or lower (almost no effect)) | 5 (Herbicidal ratio of 90% or more (almost completely withered)) | 3 (Herbicidal ratio of 40% or higher and lower than 70%) | 5 (Herbicidal ratio of 90% or more (almost completely withered)) | 5 (Herbicidal ratio of 90% or more (almost completely withered)) | 5 (Herbicidal ratio of 90% or more (almost completely withered)) | – | – | – | – | – | – | – |
| CON=C(C)CC1CC(OC(=O)C2=C(Br)CCC2)=C(c2c(C)cc(C)cc2C)C1=O (stereo not shown) [1-089] | – | – | – | 5 (Herbicidal ratio of 90% or more (almost completely withered)) | 5 (Herbicidal ratio of 90% or more (almost completely withered)) | – | – | 3 (Herbicidal ratio of 40% or higher and lower than 70%) | – | – | – | – | – | – | 5 (Herbicidal ratio of 90% or more (almost completely withered)) | 0 (Herbicidal ratio of 5% or lower (almost no effect)) | 4 (Herbicidal ratio of 70% or higher and lower than 90%) | 5 (Herbicidal ratio of 90% or more (almost completely withered)) | 5 (Herbicidal ratio of 90% or more (almost completely withered)) | 0 (Herbicidal ratio of 5% or lower (almost no effect)) | J: Alopecurus myosuroides, herbicidal effect (criteria 0-5) (Alopecurus myosuroides [2]): 5 (Herbicidal ratio of 90% or more (almost completely withered)); e: wheat, effect grade on crop (wheat): 1 (Herbicidal ratio of 5% or higher and lower than 20%); c: corn, effect on crop (criteria 0-5) (corn): 5 (Herbicidal ratio of 90% or more (almost completely withered)); F: Digitaria ciliaris, herbicidal effect (criteria 0-5) (Digitaria ciliaris): 5 (Herbicidal ratio of 90% or more (almost completely withered)); H: Echinochloa crus-galli var. crus-galli, herbicidal effect (criteria 0-5) [3]: 5 (Herbicidal ratio of 90% or more (almost completely withered)) |
| CCCC=CC(=O)OC1=C(c2c(C)cc(C)cc2C)C(=O)C(CC(C)=NOC)C1 (stereo not shown) [1-090] | – | – | – | 5 (Herbicidal ratio of 90% or more (almost completely withered)) | 5 (Herbicidal ratio of 90% or more (almost completely withered)) | – | – | 3 (Herbicidal ratio of 40% or higher and lower than 70%) | – | – | – | – | – | – | 5 (Herbicidal ratio of 90% or more (almost completely withered)) | 0 (Herbicidal ratio of 5% or lower (almost no effect)) | 4 (Herbicidal ratio of 70% or higher and lower than 90%) | 5 (Herbicidal ratio of 90% or more (almost completely withered)) | 5 (Herbicidal ratio of 90% or more (almost completely withered)) | 0 (Herbicidal ratio of 5% or lower (almost no effect)) | J: Alopecurus myosuroides, herbicidal effect (criteria 0-5) (Alopecurus myosuroides [2]): 5 (Herbicidal ratio of 90% or more (almost completely withered)); e: wheat, effect grade on crop (wheat): 4 (Herbicidal ratio of 70% or higher and lower than 90%); c: corn, effect on crop (criteria 0-5) (corn): 5 (Herbicidal ratio of 90% or more (almost completely withered)); F: Digitaria ciliaris, herbicidal effect (criteria 0-5) (Digitaria ciliaris): 5 (Herbicidal ratio of 90% or more (almost completely withered)); H: Echinochloa crus-galli var. crus-galli, herbicidal effect (criteria 0-5) [3]: 5 (Herbicidal ratio of 90% or more (almost completely withered)) |
| CON=C(C)CC1CC(O)=C(c2c(C)cc(C)cc2C)C1=O (stereo not shown) [1-002, 3-hydroxy-2-mesityl-5-{2-(methoxyimino)propyl}cyclopent-2-enone] | 5 (Herbicidal ratio of 90% or more (almost completely withered)) | 4 (Herbicidal ratio of 70% or higher and lower than 90%) | 5 (Herbicidal ratio of 90% or more (almost completely withered)) | 4 (Herbicidal ratio of 70% or higher and lower than 90%) | 5 (Herbicidal ratio of 90% or more (almost completely withered)) | 5 (Herbicidal ratio of 90% or more (almost completely withered)) | 5 (Herbicidal ratio of 90% or more (almost completely withered)) | 3 (Herbicidal ratio of 40% or higher and lower than 70%) | 0 (Herbicidal ratio of 5% or lower (almost no effect)) | 5 (Herbicidal ratio of 90% or more (almost completely withered)) | 4 (Herbicidal ratio of 70% or higher and lower than 90%) | 5 (Herbicidal ratio of 90% or more (almost completely withered)) | 5 (Herbicidal ratio of 90% or more (almost completely withered)) | 5 (Herbicidal ratio of 90% or more (almost completely withered)) | – | – | – | – | – | – | – |
